Measured values as given in PubChem BioAssay AID1963965 (Molecular Pharmacology Branch, DTP, NCI, 2024).
pIC50: −log10 of the molar value.

Tested on: 996289-038-R-J1-PDC spheroid viability
Test: Anticancer human tumor 996289-038-R-J1-PDC patient-derived colon adenocarcinoma cell line growth inhibition [PI3K]
Conditions: spheroids with HUVEC and MSC; for pIC50: curve of first compound; for viability, T/C: stronger effect = lower value
In short: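 We assembled tumor spheroids that included a stromal compartment of HUVEC and MSCs, then exposed them to targeted agents alone and together with PI3K pathway inhibitors. Concentration series descended by half-log from clinically achievable Cmax levels. Viability served as the endpoint.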

[1] = second compound 0.0316 µM, first compound 0.0316 µM
[2] = second compound 0.0316 µM, first compound 0.1 µM
[3] = second compound 0.0316 µM, first compound 0.316 µM
[4] = second compound 0.0316 µM, first compound 1 µM
[5] = second compound 0.0316 µM, first compound 3.16 µM
[6] = second compound 0.0316 µM, first compound 10 µM
[7] = second compound 0.1 µM, first compound 0.0316 µM
[8] = second compound 0.1 µM, first compound 0.1 µM
[9] = second compound 0.1 µM, first compound 0.316 µM
[10] = second compound 0.1 µM, first compound 1 µM
[11] = second compound 0.1 µM, first compound 3.16 µM
[12] = second compound 0.1 µM, first compound 10 µM
[13] = second compound 0.316 µM, first compound 0.0316 µM
[14] = second compound 0.316 µM, first compound 0.1 µM
[15] = second compound 0.316 µM, first compound 0.316 µM
[16] = second compound 0.316 µM, first compound 1 µM
[17] = second compound 0.316 µM, first compound 3.16 µM
[18] = second compound 0.316 µM, first compound 10 µM
[19] = second compound 1 µM, first compound 0.0316 µM
[20] = second compound 1 µM, first compound 0.1 µM
[21] = second compound 1 µM, first compound 0.316 µM
[22] = second compound 1 µM, first compound 1 µM
[23] = second compound 1 µM, first compound 3.16 µM
[24] = second compound 1 µM, first compound 10 µM
[25] = second compound 3.16 µM, first compound 0.0316 µM
[26] = second compound 3.16 µM, first compound 0.1 µM
[27] = second compound 3.16 µM, first compound 0.316 µM
[28] = second compound 3.16 µM, first compound 1 µM
[29] = second compound 3.16 µM, first compound 3.16 µM
[30] = second compound 3.16 µM, first compound 10 µM
[31] = second compound 10 µM, first compound 0.0316 µM
[32] = second compound 10 µM, first compound 0.1 µM
[33] = second compound 10 µM, first compound 0.316 µM
[34] = second compound 10 µM, first compound 1 µM
[35] = second compound 10 µM, first compound 3.16 µM
[36] = second compound 10 µM, first compound 10 µM
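Also: spheroids exposed to compounds for seven days before viability read.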
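For viability, T/C in this document: luminescence used as a proxy for viable cell amount; percent viability relative to DMSO vehicle control as 100%.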

In the case of `C[C@@H](NC(=O)c1ncnc(N)c1Cl)c1ncc(C(=O)Nc2cc(C(F)(F)F)c(Cl)cn2)s1` + CC(Nc1ncnc2nc[nH]c12)c1cc2cccc(Cl)c2c(=O)n1-c1ccccc1, the pIC50 (second compound 0.0316 µM) was under 5.00, the pIC50 (second compound 0.1 µM) was under 5.00 and the pIC50 (second compound 0.316 µM) was under 5.00. The pIC50 (second compound 1 µM) was under 5.00, the pIC50 (second compound 3.16 µM) was under 5.00 and the pIC50 (second compound 10 µM) was under 5.00. For the same compound, the viability, T/C [1] was 102%, the viability, T/C [2] was 102% and the viability, T/C [3] was 98.6%. It also gave a viability, T/C [4] of 128%, a viability, T/C [5] of 137% and a viability, T/C [6] of 126%. For the same compound, the viability, T/C [7] was 115%, the viability, T/C [8] was 85.2% and the viability, T/C [9] was 125%. For the same compound, the viability, T/C [10] was 120%, the viability, T/C [11] was 124% and the viability, T/C [12] was 111%. It also gave a viability, T/C [13] of 105%, a viability, T/C [14] of 103% and a viability, T/C [15] of 116%. It also gave a viability, T/C [16] of 108%, a viability, T/C [17] of 142% and a viability, T/C [18] of 130%. It also gave a viability, T/C [19] of 105%, a viability, T/C [20] of 108% and a viability, T/C [21] of 95.8%. The viability, T/C [22] was 108%, the viability, T/C [23] was 135% and the viability, T/C [24] was 120%. The viability, T/C [25] was 83.3%, the viability, T/C [26] was 93.9% and the viability, T/C [27] was 115%. For the same compound, the viability, T/C [28] was 119%, the viability, T/C [29] was 140% and the viability, T/C [30] was 116%. It also gave a viability, T/C [31] of 93.1%, a viability, T/C [32] of 102% and a viability, T/C [33] of 102%. The viability, T/C [34] was 98.1%, the viability, T/C [35] was 122% and the viability, T/C [36] was 101%.

In the case of `Cn1cnc2c(F)c(Nc3ccc(Br)cc3Cl)c(C(=O)NOCCO)cc21`, the viability, T/C (compound 0.00949 µM) was 89.3% [middle of 4 runs], the viability, T/C (compound 0.03 µM) was 74.7% [middle of 4 runs] and the viability, T/C (compound 0.0949 µM) was 64% [middle of 4 runs]. The viability, T/C (compound 0.3 µM) was 44.4% [middle of 4 runs], the viability, T/C (compound 0.949 µM) was 35.1% [middle of 4 runs] and the viability, T/C (compound 3 µM) was 24.5% [middle of 4 runs]. The IC50 (curve of compound) was 229 nM [middle of 4 runs].

Work on `CCCS(=O)(=O)Nc1ccc(F)c(C(=O)c2c[nH]c3ncc(-c4ccc(Cl)cc4)cc23)c1F` + CC(Nc1ccc2c(c1)OCCn1cc(N3C(=O)OCC3C(F)F)nc1-2)C(N)=O yielded a pIC50 (second compound 0.00316 µM) of 5.23, a pIC50 (second compound 0.01 µM) of 5.21 and a pIC50 (second compound 0.0316 µM) of 5.24. It also gave a pIC50 (second compound 0.1 µM) of 5.29, a pIC50 (second compound 0.316 µM) of 5.36 and a pIC50 (second compound 1 µM) of 5.78. For the same compound, the viability, T/C (second compound 0.00316 µM, first compound 0.0316 µM) was 108%, the viability, T/C (second compound 0.00316 µM, first compound 0.1 µM) was 89.7% and the viability, T/C (second compound 0.00316 µM, first compound 0.316 µM) was 86.3%. The viability, T/C (second compound 0.00316 µM, first compound 1 µM) was 96.7%, the viability, T/C (second compound 0.00316 µM, first compound 3.16 µM) was 83.4% and the viability, T/C (second compound 0.00316 µM, first compound 10 µM) was 21.2%. It also gave a viability, T/C (second compound 0.01 µM, first compound 0.0316 µM) of 101%, a viability, T/C (second compound 0.01 µM, first compound 0.1 µM) of 95.8% and a viability, T/C (second compound 0.01 µM, first compound 0.316 µM) of 97.8%. It also gave a viability, T/C (second compound 0.01 µM, first compound 1 µM) of 101%, a viability, T/C (second compound 0.01 µM, first compound 3.16 µM) of 88% and a viability, T/C (second compound 0.01 µM, first compound 10 µM) of 21.4%. It also gave a viability, T/C [1] of 95%, a viability, T/C [2] of 98.5% and a viability, T/C [3] of 96.6%. The viability, T/C [4] was 99.4%, the viability, T/C [5] was 82.5% and the viability, T/C [6] was 20.6%. The viability, T/C [7] was 72.4%, the viability, T/C [8] was 71.8% and the viability, T/C [9] was 74.6%. For the same compound, the viability, T/C [10] was 73.4%, the viability, T/C [11] was 75.8% and the viability, T/C [12] was 16.9%. The viability, T/C [13] was 74.8%, the viability, T/C [14] was 74.3% and the viability, T/C [15] was 76.6%. For the same compound, the viability, T/C [16] was 68%, the viability, T/C [17] was 65.1% and the viability, T/C [18] was 15.1%. The viability, T/C [19] was 63.1%, the viability, T/C [20] was 72.3% and the viability, T/C [21] was 61.7%. It also gave a viability, T/C [22] of 52.1%, a viability, T/C [23] of 44.9% and a viability, T/C [24] of 12.1%.

For `Cn1ncc(Cl)c1-c1cc(C(=O)NC(CN)Cc2cccc(F)c2)sc1Cl` (stereo not given) + CC(Nc1ncnc2nc[nH]c12)c1cc2cccc(Cl)c2c(=O)n1-c1ccccc1, the pIC50 (second compound 0.0316 µM) was under 5.00, the pIC50 (second compound 0.1 µM) was under 5.00 and the pIC50 (second compound 0.316 µM) was under 5.00. It also gave a pIC50 (second compound 1 µM) of 5.03, a pIC50 (second compound 3.16 µM) of 5.10 and a pIC50 (second compound 10 µM) of 5.29. It also gave a viability, T/C [1] of 92.2%, a viability, T/C [2] of 92.1% and a viability, T/C [3] of 81.2%. The viability, T/C [4] was 71.6%, the viability, T/C [5] was 70.6% and the viability, T/C [6] was 61.2%. For the same compound, the viability, T/C [7] was 102%, the viability, T/C [8] was 88.5% and the viability, T/C [9] was 83.5%. The viability, T/C [10] was 73.9%, the viability, T/C [11] was 69.1% and the viability, T/C [12] was 54.2%. It also gave a viability, T/C [13] of 102%, a viability, T/C [14] of 98.8% and a viability, T/C [15] of 85.2%. The viability, T/C [16] was 73.3%, the viability, T/C [17] was 69.7% and the viability, T/C [18] was 49.3%. It also gave a viability, T/C [19] of 108%, a viability, T/C [20] of 97.5% and a viability, T/C [21] of 90.2%. The viability, T/C [22] was 91.7%, the viability, T/C [23] was 71.2% and the viability, T/C [24] was 48.3%. It also gave a viability, T/C [25] of 85.6%, a viability, T/C [26] of 94% and a viability, T/C [27] of 88.6%. It also gave a viability, T/C [28] of 85%, a viability, T/C [29] of 67.6% and a viability, T/C [30] of 45.7%. The viability, T/C [31] was 84.1%, the viability, T/C [32] was 91.2% and the viability, T/C [33] was 92%. For the same compound, the viability, T/C [34] was 79%, the viability, T/C [35] was 58.1% and the viability, T/C [36] was 39.2%.

`Cn1nccc1Nc1nccc(-c2ccn(C(CO)c3ccc(Cl)c(F)c3)c(=O)c2)n1` (stereo not given) + Cc1nc(NC(=O)N2CCCC2C(N)=O)sc1-c1ccnc(C(C)(C)C(F)(F)F)c1 showed a pIC50 (second compound 0.0316 µM) of under 5.00, a pIC50 (second compound 0.1 µM) of under 5.00 and a pIC50 (second compound 0.316 µM) of under 5.00. The pIC50 (second compound 1 µM) was 5.45, the pIC50 (second compound 3.16 µM) was 5.45 and the pIC50 (second compound 10 µM) was over 7.50. The viability, T/C [1] was 106%, the viability, T/C [2] was 114% and the viability, T/C [3] was 108%. For the same compound, the viability, T/C [4] was 85.8%, the viability, T/C [5] was 97% and the viability, T/C [6] was 55.2%. For the same compound, the viability, T/C [7] was 107%, the viability, T/C [8] was 96.8% and the viability, T/C [9] was 101%. For the same compound, the viability, T/C [10] was 85.6%, the viability, T/C [11] was 70.2% and the viability, T/C [12] was 52.1%. The viability, T/C [13] was 92.5%, the viability, T/C [14] was 84.5% and the viability, T/C [15] was 101%. For the same compound, the viability, T/C [16] was 72.7%, the viability, T/C [17] was 61.4% and the viability, T/C [18] was 49.5%. For the same compound, the viability, T/C [19] was 76.8%, the viability, T/C [20] was 90% and the viability, T/C [21] was 72.5%. It also gave a viability, T/C [22] of 62%, a viability, T/C [23] of 54.1% and a viability, T/C [24] of 38.8%. It also gave a viability, T/C [25] of 54.8%, a viability, T/C [26] of 57.4% and a viability, T/C [27] of 63%. It also gave a viability, T/C [28] of 54.9%, a viability, T/C [29] of 52.9% and a viability, T/C [30] of 27.1%. The viability, T/C [31] was 44.7%, the viability, T/C [32] was 40.6% and the viability, T/C [33] was 57.9%. The viability, T/C [34] was 34.7%, the viability, T/C [35] was 29.4% and the viability, T/C [36] was 15.7%.
